Test [1] concerns experimental allergic encephalomyelitis in HLA-DRA-IEα/HLA-DRB1*0401-IEβ Tg mice. It counts as in vivo, mouse.
The target of test [2] is HLA-DRB1*0401 molecules purified from Priess cells (Homo sapiens, UniProt P01903+P01911, A100K/A169T/F76Y/I96L/K127E/L162R/M171V/N62H/P40V/Q125Y/R42H/S133A/S149N/S66Y/V115G/V209L/W38E). Kind of test: biochemical. It counts as binding.
Test [3] deals with HLA-DRA-IEα/HLA-DRB1*0401-IEβ chimeric molecules purified from transfected M12.C3 cells (Homo sapiens, UniProt P01903+P01911, A100K/A169T/F76Y/I96L/K127E/L162R/M171V/N62H/P40V/Q125Y/R42H/S133A/S149N/S66Y/V115G/V209L/W38E). Kind of test: biochemical. It counts as binding, human/mouse chimeric.

Where two headings read alike, the source gives them in different places. Residues, ends and D or L forms follow the SMILES beside them.

Regarding `CC[C@H](C)[C@H](NC(=O)[C@H](CC(N)=O)NC(=O)[C@H](CCCCN)NC(=O)[C@H](Cc1ccccc1)NC(=O)[C@H](Cc1ccccc1)NC(=O)[C@H](Cc1c[nH]cn1)NC(=O)[C@@H](NC(=O)[C@@H](N)C(C)C)C(C)C)C(=O)N[C@H](C(=O)N[C@H](C(=O)N1CCC[C@H]1C(=O)N[C@@H](CCCNC(=N)N)C(=O)N[C@H](C(=O)N1CCC[C@H]1C(=O)N1CCC[C@H]1C(=O)N1CCC[C@H]1C(=O)N[C@@H](CO)C(=O)N[C@@H](CCC(N)=O)C(=O)NCC(=O)N[C@@H](CCCCN)C(=O)O)[C@@H](C)O)[C@@H](C)O)C(C)C` [MBP87-106] (H-VVHFFKNIVTPRTPPPSQGK-OH; N-terminus and C-terminus assumed), the “Severity: number of mice with clinical score 0 (no disease)” value in test [1] (Non-Tg mice, n = 5, Table 2) is 5. The “EAE developed (in words)” value in test [1] (Tg mice) was “only a mild EAE”. In test [1] (Tg mice, n = 5, Table 2), the “Severity: number of mice with clinical score 0 (no disease)” value is on record as 2, the “Severity: number of mice with clinical score 1 (tail atony)” value is 2 and the “Severity: number of mice with clinical score 3 (hind-limb paralysis)” value stood at 1.

For orientation: IC50 means the concentration that gives 50% inhibition. Low values mean inhibition by little substance, high ones a need for much substance. Take `CC[C@H](C)[C@H](NC(=O)[C@H](CO)NC(=O)[C@H](CCC(N)=O)NC(=O)[C@H](CS)NC(=O)[C@@H](NC(=O)[C@@H](NC(=O)[C@H](Cc1c[nH]c2ccccc12)NC(=O)[C@@H](NC(=O)[C@H](CC(N)=O)NC(=O)[C@H](Cc1ccccc1)NC(=O)[C@H](Cc1ccc(O)cc1)NC(=O)[C@@H](NC(=O)[C@@H](N)Cc1ccc(O)cc1)[C@@H](C)CC)[C@@H](C)O)[C@@H](C)O)[C@@H](C)O)C(=O)N[C@@H](C)C(=O)N[C@@H](Cc1ccccc1)C(=O)N1CCC[C@H]1C(=O)N[C@@H](CO)C(=O)N[C@@H](CCCCN)C(=O)O` [PLP175-192] (H-YIYFNTWTTCQSIAFPSK-OH): the values for the half-maximal inhibitory concentration (IC50) in test [2] and in test [3] were 187 nM and 169 nM, respectively.

As for `CSCC[C@H](NC(=O)[C@H](C)NC(=O)[C@H](CCCNC(=N)N)NC(=O)[C@@H](N)Cc1ccc(O)cc1)C(=O)N[C@@H](C)C(=O)N[C@@H](C)C(=O)N[C@@H](CC(C)C)C(=O)O` [Peptide A6-m1-7] (H-YRAMAAL-OH), the results for the IC50 in test [2] and in test [3] were 410 nM and 530 nM, respectively.

For the compound `CSCC[C@H](NC(=O)[C@H](C)NC(=O)[C@H](CCCNC(=N)N)NC(=O)[C@@H](N)Cc1ccc(O)cc1)C(=O)N[C@@H](C)C(=O)N[C@@H](CO)C(=O)N[C@@H](CC(C)C)C(=O)O` [Peptide S6-m1-7] (H-YRAMASL-OH), the IC50 is 43 nM in test [2] and 53 nM in test [3].

Regarding `CSCC[C@H](NC(=O)[C@H](C)NC(=O)[C@H](CCCNC(=N)N)NC(=O)[C@@H](N)Cc1ccc(O)cc1)C(=O)N[C@@H](C)C(=O)N[C@H](C(=O)N[C@@H](CC(C)C)C(=O)O)[C@@H](C)O` [m 1-7] (H-YRAMATL-OH), the IC50 was determined as 120 nM in test [2] and 130 nM in test [3].
